According to patent publication US20080090848A1, “Substituted Purinyl Derivatives With Immunomodulator And Chemoprotective Activity And Use Alone Or With Medium-Chain Length Fatty Acids Or Glycerides” (priority 2004, published 2008):
Where two headings read alike, the source gives them in different places.

Experiments:
[1] = test system: bone marrow progenitor cell; assay: Bone marrow progenitor cells (CFU-GEMM) after tricaprin, compound I or both in CY-treated mice (Example 3); assay type: in vivo, C57BL/6 mice; settings: tricaprin 60.5 mM oral and/or compound I 50 mg/kg
Method: (§1) Female C57BL/6 mice, 6 to 8 weeks old, were immunosuppressed by treatment with 200 mg/kg of cyclophosphamide (CY) administered intravenously at day 0. To examine the chemoprotective effect of compound I, mice were pre-treated intraperitoneally at day −3, −2 and −1 with 50 mg/kg of the compound. Mice were sacrificed at day +5 by cardiac puncture and cervical dislocation. Then, cell suspensions were prepared from thymus, spleen and bone marrow as follows.
(§2) The effect of tricaprin, compound I, and the combination of both compounds on in vivo induction of hematopoietic cell proliferation or protection was determined following the protocol described in Example 1. Oral administration of tricaprin (60.5 mM) and/or peritoneal injection of compound I were performed on day −3, −2 and −1.

hematopoietic cells [2] = assay: Chemoprotection: in vivo protection of hematopoietic cells by compound II in CY-treated mice (Example 4); set-up: species or system C57BL/6 mice
Method: as §1
(§3) Tissues were crushed in PBS buffer and contaminating erythrocytes were lysed in ACK buffer (155 mM NH4Cl, 12 mM NaHCO3, 0.1 mM EDTA, pH 7.3) for five minutes. Cells were then collected by centrifugation and washed three times in PBS and resuspended in tissue culture medium. Cells were counted with a Coulter counter.
The effect of compound II on in vivo induction of hematopoietic cell proliferation or protection was determined following the protocol described in Example 1. Oral administration of compound II (50 mg/kg or 100 mg/kg) was performed on day −3, −2 and −1.

bone marrow red cells = assay: Chemoprotection: combination of tricaprin and compound I in CY-treated mice, bone marrow red cell count (Example 3); assay type: in vivo, C57BL/6 mice; settings: tricaprin 60.5 mM oral and/or compound I 50 mg/kg peritoneal injection, day −3, −2, −1
Method: as §1, §3, §2

hematopoietic cells [3] = assay: Chemoprotection: in vivo protection of hematopoietic cells by compound I in CY-immunosuppressed mice (Example 1); set-up: species or system C57BL/6 mice; settings: for Cell count, peripheral blood white cells / Cell count, spleen red cells / Cell count, spleen white cells: CY 200 mg/kg i.v. day 0, compound I 50 mg/kg i.p. day −3, −2, −1, sacrifice day +5
Method: as §1, §3

[4] = rat, in vivo, po; cited from earlier work
MC-38 colon cancer = assay: Survival of mice with MC-38 colon cancer treated with a toxic regimen of 5-fluorouracil; assay type: in vivo; settings: compound I plus toxic regimen of 5-fluorouracil versus 5-fluorouracil alone (e.g., 40 mg/kg)
[5] = i.v., rat; cited from earlier work
hematopoietic cells [6] = assay: Chemoprotection: combination of sodium caprate and compound I in CY-treated mice (Example 2); assay type: in vivo, C57BL/6 mice; settings: for Effect on bone marrow red cell count (FIG. 2) / Effect on bone marrow white cell count (FIG. 3): low dose, intravenous: sodium caprate 1.21 mM, compound I 5 mg/kg, sodium caprate or compound I used alone; for Effect on peripheral red blood cell count (FIG. 1): sodium caprate 60.5 mM oral and/or compound I 50 mg/kg i.p., day −3, −2, −1, versus respective CY control
hematopoietic cells [7] = assay: Chemoprotection: combination of histamine dihydrochloride and compound I in CY-treated mice (Example 6); assay type: in vivo, C57BL/6 mice; settings: for Effect on bone marrow white cell count (FIG. 5): intravenous histamine dihydrochloride 25 mg/kg and/or compound I 5 mg/kg, day −3, −2, −1, CY-treated mice, compared to CY
Method: (§4) Mice were sacrificed at day +5 by cardiac puncture and cervical dislocation. Then, cell suspensions were prepared from thymus, spleen and bone marrow as follows. Tissues were crushed in PBS buffer and contaminating erythrocytes were lysed in ACK buffer (155 mM NH4Cl, 12 mM NaHCO3, 0.1 mM EDTA, pH 7.3) for five minutes. Cells were then collected by centrifugation and washed three times in PBS and resuspended in tissue culture medium. Cells were counted with a Coulter counter. Effect of low dose of histamine, compound I, and the combination of both compounds on in vivo induction of hematopoietic cell proliferation or protection was undertaken following the protocol described in Example 1.

CTLs = settings: compared with interleukin 2; cited from earlier work
[8] = cited from earlier work
hematopoietic cells [9] = assay: Chemoprotection: combination of histamine dihydrochloride and compound II in CY-treated mice (Example 7); assay type: in vivo, C57BL/6 mice; settings: histamine dihydrochloride 25 mg/kg i.v. and/or compound II 100 mg/kg oral, day −3, −2, −1, compared to CY
Method: as §1, §3
Effect of low dose of histamine, compound II, and the combination of both compounds on in vivo induction of hematopoietic cell proliferation or protection was undertaken following the protocol described in Example 1. Intravenous administration of histamine dihydrochloride (25 mg/kg) and oral administration of compound II (100 mg/kg) were performed on day −3, −2 and −1.

hematopoietic cells [10] = assay: Chemoprotection: combination of sodium caprate and compound II in CY-treated mice (Example 5); assay type: in vivo, C57BL/6 mice; settings: oral sodium caprate 60.5 mM and/or compound II 50 mg/kg or 100 mg/kg, day −3, −2, −1
Method: as §4, with “The effect” for “Effect”, “sodium caprate,” for “low dose of histamine,”, “II,” for “I,”, “determined” for “undertaken”

[11] = CY alone (200 mg/kg i.v. day 0)
[12] = pre-treatment 50 mg/kg i.p. in CY-treated mice, versus CY
[13] = CY + compound II 50 mg/kg oral, day −3, −2, −1
[14] = CY + compound II 100 mg/kg oral, day −3, −2, −1
[15] = oral pre-treatment in CY-treated mice, dose not given

O=P1(N(CCCl)CCCl)NCCCO1 (stereo not shown) [CY, cyclophosphamide, reference compound]
CFU-GEMM (colony number), bone marrow [1]: 1 colony number | Cell count, bone marrow red cells (hematopoietic cells [2]; [11]): 31.6 ± 5.0 10^6 | Cell count, bone marrow white cells (hematopoietic cells [2]; [11]): 19.8 ± 4.4 10^6 | Bone marrow red cell count (bone marrow red cells): 31.5 ± 3.5 10^6 | Cell count, peripheral blood white cells (hematopoietic cells [3]): 1.3 ± 0.6 10^6 | Cell count, spleen red cells (hematopoietic cells [3]): 341 ± 107 10^6 | Cell count, spleen white cells (hematopoietic cells [3]): 34. ± 9 10^6

CCCCCCCCCC(=O)OCC(COC(=O)CCCCCCCCC)OC(=O)CCCCCCCCC [Tricaprin, tricaprin]
CFU-GEMM (colony number), bone marrow [1]: 0.5 colony number | Bone marrow red cell count (bone marrow red cells): 33.8 ± 3.7 10^6

CCCCCCCC(=O)O [caprylic acid]
LD50 [4]: 10080 mg/kg

CN(C)c1ncnc2c1ncn2CCCCCOC(=O)NC(CCCNC(=N)N)C(=O)O (stereo not drawn) [compound I, [[5-[6-(N,N-dimethylamino)purin-9-yl]pentoxy]-carbonyl]d-arginine]
Survival of animals (MC-38 colon cancer): improved survival | LD50 [5]: more than 500 mg/kg | Effect on bone marrow red cell count (FIG. 2) (hematopoietic cells [6]): No effect | Effect on bone marrow white cell count (FIG. 3) (hematopoietic cells [6]): No effect | Effect on peripheral red blood cell count (FIG. 1) (hematopoietic cells [6]): significant increase | CFU-GEMM (colony number), bone marrow [1]: 1 colony number | Effect on bone marrow white cell count (FIG. 5) (hematopoietic cells [7]): No significant effect | In vitro stimulation of CTLs (CTLs): comparable to the immune growth factor or cytokine interleukin 2 | Bone marrow red cell count (bone marrow red cells): 37.4 ± 7.1 10^6 | In vivo antitumor activity [8]: significant in vivo antitumor activity | Cell count, peripheral blood white cells (hematopoietic cells [3]): 2.6 ± 0.6 10^6 | Cell count, spleen red cells (hematopoietic cells [3]): 468 ± 104 10^6 | Cell count, spleen white cells (hematopoietic cells [3]): 48 ± 5 10^6 | Spleen red cell count compared to non-immunosuppressed animals (control) (hematopoietic cells [3]; pre-treatment 50 mg/kg i.p. in CY-treated mice): some treated animals returned to a “baseline level” | Effect on peripheral white blood cell count (in words) (hematopoietic cells [3]; [12]): significant increase | Effect on spleen red cell count (in words) (hematopoietic cells [3]; [12]): significant increase | Effect on spleen white cell count (in words) (hematopoietic cells [3]; [12]): significant increase

CN(C)c1ncnc2c1ncn2CCCCCO [compound II]
Cell count, bone marrow red cells (hematopoietic cells [2]; [13]): 29.4 ± 2.7 10^6 | Cell count, bone marrow white cells (hematopoietic cells [2]; [13]): 17.4 ± 3.5 10^6 | Cell count, bone marrow red cells (hematopoietic cells [2]; [14]): 43.9 ± 16.3 10^6 | Cell count, bone marrow white cells (hematopoietic cells [2]; [14]): 30.5 ± 9.4 10^6 | Bone marrow red and white cell counts compared to non-immunosuppressed animals (control) (hematopoietic cells [2]; oral pre-treatment in CY-treated mice): some treated animals return to a “baseline level” | Effect on bone marrow red cell count (in words) (hematopoietic cells [2]; [15]): significant increase | Effect on bone marrow white cell count (in words) (hematopoietic cells [2]; [15]): significant increase | Effect on spleen white cell count (FIG. 7) (hematopoietic cells [9]): No significant effect

Cl.Cl.NCCc1c[nH]cn1 [histamine, histamine dihydrochloride]
Stimulation of hematopoiesis (hematopoietic cells [7]; histamine alone, general statement): weakly stimulate hematopoiesis | Effect on bone marrow white cell count (FIG. 5) (hematopoietic cells [7]): No significant effect | Effect on spleen white cell count (FIG. 7) (hematopoietic cells [9]): No significant effect

c1ccc([C@H]2CN3CCSC3=N2)cc1 [levamisole, reference compound]
LD50 [5]: 16 mg/kg

CCCCCCCCCC(=O)[O-].[Na+] [sodium caprate]
Effect on peripheral red blood cell count (FIG. 4) (hematopoietic cells [10]): weak increase | Effect on bone marrow red cell count (FIG. 2) (hematopoietic cells [6]): No effect | Effect on bone marrow white cell count (FIG. 3) (hematopoietic cells [6]): No effect | Effect on peripheral red blood cell count (FIG. 1) (hematopoietic cells [6]): significant increase
